Measurements: the NIST ThermoML archive (doi:10.1021/acs.jced.8b00080)
Numbers after ± are expanded uncertainties.

Assay: activity coefficient (dimensionless); of the first substance listed, at infinite dilution; xn = mol fraction of the nth substance listed
Conditions: 101.33 kPa, Liquid, Chromatography, x1 = 0

Structure (SMILES)	activity coefficient (303 K)	activity coefficient (313 K)	activity coefficient (323 K)	activity coefficient (333 K)	activity coefficient (343 K)	activity coefficient (353 K)
Cc1ccccc1C [1,2-dimethylbenzene] + C[n+]1ccn(CCO)c1.O=S(=O)([O-])C(F)(F)C(F)(F)C(F)(F)C(F)(F)F	10.4 ± 0.37	9.7 ± 0.35	8.9 ± 0.32	7.81 ± 0.28	7.04 ± 0.25	6.52 ± 0.23
Cc1cccc(C)c1 [1,3-dimethylbenzene] + C[n+]1ccn(CCO)c1.O=S(=O)([O-])C(F)(F)C(F)(F)C(F)(F)C(F)(F)F	11.6 ± 0.42	10.8 ± 0.39	9.86 ± 0.35	8.71 ± 0.31	7.91 ± 0.28	7.2 ± 0.26
Cc1ccc(C)cc1 [1,4-dimethylbenzene] + C[n+]1ccn(CCO)c1.O=S(=O)([O-])C(F)(F)C(F)(F)C(F)(F)C(F)(F)F	11.9 ± 0.43	11 ± 0.39	9.88 ± 0.35	8.78 ± 0.31	8 ± 0.28	7.59 ± 0.27
C1COCCO1 [1,4-dioxane] + C[n+]1ccn(CCO)c1.O=S(=O)([O-])C(F)(F)C(F)(F)C(F)(F)C(F)(F)F	1.67 ± 0.09	1.64 ± 0.09	1.61 ± 0.09	1.59 ± 0.09	1.56 ± 0.09	1.53 ± 0.09
C=CCCCCCCCC [1-decene] + C[n+]1ccn(CCO)c1.O=S(=O)([O-])C(F)(F)C(F)(F)C(F)(F)C(F)(F)F	122 ± 4.5	107 ± 3.9	91.5 ± 3.3	79.6 ± 2.9	67.7 ± 2.5	59.2 ± 2.1
C#CCCCCC [1-heptyne] + C[n+]1ccn(CCO)c1.O=S(=O)([O-])C(F)(F)C(F)(F)C(F)(F)C(F)(F)F	16.7 ± 0.6	15.1 ± 0.54	13.4 ± 0.48	11.9 ± 0.43	10.4 ± 0.37	9.29 ± 0.33
C#CCCCC [1-hexyne] + C[n+]1ccn(CCO)c1.O=S(=O)([O-])C(F)(F)C(F)(F)C(F)(F)C(F)(F)F	10.4 ± 0.37	9.24 ± 0.33	7.92 ± 0.28	6.97 ± 0.25	6.03 ± 0.21	5.18 ± 0.19
C#CCCCCCC [1-octyne] + C[n+]1ccn(CCO)c1.O=S(=O)([O-])C(F)(F)C(F)(F)C(F)(F)C(F)(F)F	26.2 ± 0.94	23.8 ± 0.85	21.2 ± 0.76	19.1 ± 0.69	16.9 ± 0.61	14.8 ± 0.53
C#CCCC [1-pentyne] + C[n+]1ccn(CCO)c1.O=S(=O)([O-])C(F)(F)C(F)(F)C(F)(F)C(F)(F)F	5.99 ± 0.21	5.07 ± 0.18	4.21 ± 0.16	3.68 ± 0.14	3.11 ± 0.13	2.59 ± 0.12
CC(C)=O [acetone] + C[n+]1ccn(CCO)c1.O=S(=O)([O-])C(F)(F)C(F)(F)C(F)(F)C(F)(F)F	0.93 ± 0.08	0.91 ± 0.08	0.9 ± 0.08	0.88 ± 0.08	0.85 ± 0.08	0.83 ± 0.08
CC#N [acetonitrile] + C[n+]1ccn(CCO)c1.O=S(=O)([O-])C(F)(F)C(F)(F)C(F)(F)C(F)(F)F	0.99 ± 0.08	0.97 ± 0.08	0.93 ± 0.08	0.9 ± 0.08	0.87 ± 0.08	0.84 ± 0.08
c1ccccc1 [benzene] + C[n+]1ccn(CCO)c1.O=S(=O)([O-])C(F)(F)C(F)(F)C(F)(F)C(F)(F)F	4.71 ± 0.17	4.27 ± 0.16	3.85 ± 0.15	3.34 ± 0.13	2.95 ± 0.12	2.65 ± 0.12
C1CCCCC1 [cyclohexane] + C[n+]1ccn(CCO)c1.O=S(=O)([O-])C(F)(F)C(F)(F)C(F)(F)C(F)(F)F	24.3 ± 0.88	19.1 ± 0.69	15.2 ± 0.55	11.7 ± 0.42	9.39 ± 0.34	7.54 ± 0.27
ClCCl [dichloromethane] + C[n+]1ccn(CCO)c1.O=S(=O)([O-])C(F)(F)C(F)(F)C(F)(F)C(F)(F)F	2.14 ± 0.11	1.99 ± 0.1	1.85 ± 0.1	1.69 ± 0.09	1.54 ± 0.09	1.45 ± 0.09
CCO [ethanol] + C[n+]1ccn(CCO)c1.O=S(=O)([O-])C(F)(F)C(F)(F)C(F)(F)C(F)(F)F	1.56 ± 0.09	1.48 ± 0.09	1.38 ± 0.09	1.31 ± 0.09	1.22 ± 0.08	1.14 ± 0.08
CCc1ccccc1 [ethylbenzene] + C[n+]1ccn(CCO)c1.O=S(=O)([O-])C(F)(F)C(F)(F)C(F)(F)C(F)(F)F	12.1 ± 0.43	11 ± 0.39	10.1 ± 0.36	8.82 ± 0.31	7.93 ± 0.28	7.09 ± 0.25
CCCCCCC [heptane] + C[n+]1ccn(CCO)c1.O=S(=O)([O-])C(F)(F)C(F)(F)C(F)(F)C(F)(F)F	53 ± 1.9	39.7 ± 1.4	30.9 ± 1.1	23.6 ± 0.86	18 ± 0.65	13.9 ± 0.5
C=CCCCC [hex-1-ene] + C[n+]1ccn(CCO)c1.O=S(=O)([O-])C(F)(F)C(F)(F)C(F)(F)C(F)(F)F	15.7 ± 0.57	12.4 ± 0.45	9.71 ± 0.35	7.62 ± 0.27	6.07 ± 0.22	4.97 ± 0.18
CCCCCC [hexane] + C[n+]1ccn(CCO)c1.O=S(=O)([O-])C(F)(F)C(F)(F)C(F)(F)C(F)(F)F	23.5 ± 0.85	17.7 ± 0.64	13.7 ± 0.49	10.6 ± 0.38	8 ± 0.29	6.31 ± 0.23
CO [methanol] + C[n+]1ccn(CCO)c1.O=S(=O)([O-])C(F)(F)C(F)(F)C(F)(F)C(F)(F)F	1.1 ± 0.08	1.02 ± 0.08	0.93 ± 0.08	0.9 ± 0.08	0.87 ± 0.08	0.82 ± 0.08
CC1CCCCC1 [methylcyclohexane] + C[n+]1ccn(CCO)c1.O=S(=O)([O-])C(F)(F)C(F)(F)C(F)(F)C(F)(F)F	38.1 ± 1.4	29.7 ± 1.1	24.3 ± 0.88	19 ± 0.69	15.2 ± 0.55	12.3 ± 0.44
CCCCCCCCC [nonane] + C[n+]1ccn(CCO)c1.O=S(=O)([O-])C(F)(F)C(F)(F)C(F)(F)C(F)(F)F	157 ± 5.7	132 ± 4.8	105 ± 3.8	88 ± 3.2	71 ± 2.6	54.1 ± 2
C=CCCCCCC [oct-1-ene] + C[n+]1ccn(CCO)c1.O=S(=O)([O-])C(F)(F)C(F)(F)C(F)(F)C(F)(F)F	53.9 ± 2	45.2 ± 1.6	36.6 ± 1.3	29.5 ± 1.1	24.3 ± 0.88	19.9 ± 0.72
CCCCCCCC [octane] + C[n+]1ccn(CCO)c1.O=S(=O)([O-])C(F)(F)C(F)(F)C(F)(F)C(F)(F)F	99 ± 3.6	75.8 ± 2.8	61.2 ± 2.2	47.3 ± 1.7	37.1 ± 1.4	28.4 ± 1
CCCCC [pentane] + C[n+]1ccn(CCO)c1.O=S(=O)([O-])C(F)(F)C(F)(F)C(F)(F)C(F)(F)F	9.38 ± 0.34	6.94 ± 0.25	5.46 ± 0.2	4.34 ± 0.16	3.39 ± 0.14	2.75 ± 0.12
CCCO [propan-1-ol] + C[n+]1ccn(CCO)c1.O=S(=O)([O-])C(F)(F)C(F)(F)C(F)(F)C(F)(F)F	2.22 ± 0.11	2.07 ± 0.1	1.91 ± 0.1	1.81 ± 0.1	1.66 ± 0.09	1.53 ± 0.09
C1CCOC1 [tetrahydrofuran] + C[n+]1ccn(CCO)c1.O=S(=O)([O-])C(F)(F)C(F)(F)C(F)(F)C(F)(F)F	1.73 ± 0.1	1.7 ± 0.09	1.64 ± 0.09	1.59 ± 0.09	1.52 ± 0.09	1.48 ± 0.09
Cc1ccccc1 [toluene] + C[n+]1ccn(CCO)c1.O=S(=O)([O-])C(F)(F)C(F)(F)C(F)(F)C(F)(F)F	7.4 ± 0.26	6.83 ± 0.24	6.21 ± 0.22	5.44 ± 0.19	4.94 ± 0.18	4.44 ± 0.16
ClC(Cl)Cl [trichloromethane] + C[n+]1ccn(CCO)c1.O=S(=O)([O-])C(F)(F)C(F)(F)C(F)(F)C(F)(F)F	2.27 ± 0.11	2.2 ± 0.11	2.11 ± 0.1	2.01 ± 0.1	1.91 ± 0.1	1.84 ± 0.1
